Experimental data reported in paper PMC8233901, “D-Amino Acid-Containing Lipopeptides Derived from the Lead Peptide BP100 with Activity against Plant Pathogens” (International Journal of Molecular Sciences, 2021).
Values joined by “and” are separate entries in the source; they are usually repeats but may differ in a detail not shown here. Equal entries are not always repeated. Where a SMILES comes first, the peptide text is derived from it. [ ]: non-standard residue; d: D form. The star is where a group is joined. Lauroyl = CCCCCCCCCCCC(=O)*; Butyryl = CCCC(=O)*

Key:
[1] = tested on: horse erythrocytes; test: Hemolytic activity (hemoglobin release from erythrocytes); assay type: cell-based; conditions: D-amino acid lipopeptides, TRIS buffer pH 7.2, 1 h, 37 °C, ± confidence interval (α = 0.05); for Hemolysis (%) 250 µM / Hemolysis (%) 150 µM / Hemolysis (%) 375 µM: relative to melittin; for Hemolysis (%) 50 µM: absorbance 540 nm, relative to melittin 100 µM
Procedure: The hemolytic activity of the compounds was evaluated by determining hemoglobin release from erythrocyte suspensions of horse blood (5% vol/vol) (Oxoid) as previously described. Blood was centrifuged at 6000 g for 5 min, washed three times with tris(hydroxymethyl)aminomethane (TRIS) buffer (10 mM TRIS, 150 mM NaCl, pH 7.2) and diluted 10 times. Compounds were solubilized in TRIS buffer at 750, 500, 300 and 100 μM and mixed with horse erythrocytes (1:1 v/v). The mixture was incubated under continuous shaking for 1 h at 37 °C. Then, the tubes were centrifuged at 3500 g for 10 min, 80 μL aliquots of the supernatant transferred to 100-well microplates (Bioscreen), diluted with 80 μL water, and the absorbance measured at 540 nm (Bioscreen). Complete hemolysis was obtained by the addition of melittin at 100 μM (Sigma-Aldrich Corporation, Madrid, Spain). The percentage of hemolysis (H) was calculated using the equation: H = 100 × [(Op−Ob)/(Om−Ob)], where Op is the density for a given compound concentration, Ob for the buffer, and Om for the melittin-positive control.

[2] = tested on: tobacco leaves; test: Effect of peptide infiltration on tobacco leaves (lesion size); assay type: in vivo; conditions: for Size of the lesion (mm) 50 µM: 100 µL infiltrated into mesophyll of tobacco leaves; for Size of the lesion (mm) 50 µM / Size of the lesion (mm) 150 µM / Size of the lesion (mm) 250 µM: ± confidence interval
Procedure: The lipopeptides were evaluated for their effect upon infiltration on tobacco leaves as described previously. Peptide solutions of 50, 150 and 250 μM were infiltrated (100 μL) into the mesophylls of fully expanded tobacco leaves. Infiltrations were carried out in a single leaf, and for each peptide and dose, at least three leaves randomly distributed in different plants were infiltrated. Control infiltrations with water (negative control) or melittin (positive control) at the same molar concentration were performed. The appearance of symptoms on the leaves was followed for 48 h after infiltration and measured as a lesion diameter.

[3] = D-amino acid lipopeptides, lesion diameter, 48 h, at least three leaves
[4] = D-amino acid lipopeptides, 100 µL infiltrated into tobacco leaves, lesion diameter, 48 h, at least three leaves
[5] = D-amino acid lipopeptides, 250 µM, 100 µL infiltrated into tobacco leaves, lesion diameter, 48 h, at least three leaves
[6] = Table 2, 250 µM infiltrated into tobacco leaves

Compound	Hemolysis (%) 250 µM [1]	Size of the lesion (mm) 50 µM [2, 3] [mm]	Size of the lesion (mm) 150 µM [2, 4] [mm]	Size of the lesion (mm) 250 µM [2, 5] [mm]	Size of the lesion (mm) 250 µM [2, 6] [mm]	Hemolysis (%) 50 µM [1] [%]	Hemolysis (%) 150 µM [1] [%]	Hemolysis (%) 375 µM [1] [%]	necrosis in infiltrated tobacco leaves ([2]; positive control, 250 µM) [mm]
CCCCCC(=O)N[C@@H](CCCCN)C(=O)N[C@@H](CCCCN)C(=O)N[C@@H](CC(C)C)C(=O)N[C@H](Cc1ccccc1)C(=O)N[C@@H](CCCCN)C(=O)N[C@@H](CCCCN)C(=O)N[C@H](C(=O)N[C@@H](CC(C)C)C(=O)N[C@@H](CCCCN)C(=O)N[C@@H](Cc1ccc(O)cc1)C(=O)N[C@@H](CC(C)C)C(N)=O)[C@@H](C)CC [BP472, C5H11CO-KKLfKKILKYL-NH2]	78 ± 5%	2 ± 1	4 ± 1	4 ± 1	4 ± 1				
CCCC(=O)NCCCC[C@H](NC(=O)[C@H](CCCCN)NC(=O)[C@@H](Cc1ccccc1)NC(=O)[C@H](CC(C)C)NC(=O)[C@H](CCCCN)NC(=O)[C@H](CCCCN)NC(C)=O)C(=O)N[C@H](C(=O)N[C@@H](CC(C)C)C(=O)N[C@@H](CCCCN)C(=O)N[C@@H](Cc1ccc(O)cc1)C(=O)N[C@@H](CC(C)C)C(N)=O)[C@@H](C)CC [BP473, Ac-KKLfKK(COC3H7)ILKYL-NH2]	84 ± 11%	2 ± 2	4 ± 0.9	5 ± 2	5 ± 2				
CCCC(=O)NCCCC[C@H](NC(=O)[C@@H](NC(=O)[C@H](CCCCN)NC(=O)[C@H](CCCCN)NC(=O)[C@@H](Cc1ccccc1)NC(=O)[C@H](CC(C)C)NC(=O)[C@H](CCCCN)NC(=O)[C@H](CCCCN)NC(C)=O)[C@@H](C)CC)C(=O)N[C@@H](CCCCN)C(=O)N[C@@H](Cc1ccc(O)cc1)C(=O)N[C@@H](CC(C)C)C(N)=O [BP474, Ac-KKLfKKIK(COC3H7)KYL-NH2] (Ac-KKL[dF]KKIK(Butyryl)KYL-NH2)	0 ± 0%	0 ± 0	2 ± 2	4 ± 2	4 ± 2	0 ± 0	0 ± 0	0 ± 0	
CCCC(=O)NCCCC[C@H](NC(=O)[C@H](CCCCN)NC(=O)[C@H](CC(C)C)NC(=O)[C@@H](NC(=O)[C@H](CCCCN)NC(=O)[C@H](CCCCN)NC(=O)[C@@H](Cc1ccccc1)NC(=O)[C@H](CC(C)C)NC(=O)[C@H](CCCCN)NC(=O)[C@H](CCCCN)NC(C)=O)[C@@H](C)CC)C(=O)N[C@@H](CC(C)C)C(N)=O [BP475, Ac-KKLfKKILKK(COC3H7)L-NH2] (Ac-KKL[dF]KKILKK(Butyryl)L-NH2)	0 ± 0% and 0%	5 ± 1	7 ± 2	10 ± 1	10 ± 1	0 ± 0	0 ± 0	0 ± 0	
CCCCCCCCCCCC(=O)NCCCC[C@H](NC(=O)[C@H](Cc1ccc(O)cc1)NC(=O)[C@H](CCCCN)NC(=O)[C@H](CC(C)C)NC(=O)[C@@H](NC(=O)[C@H](CCCCN)NC(=O)[C@H](CCCCN)NC(=O)[C@@H](Cc1ccccc1)NC(=O)[C@H](CC(C)C)NC(=O)[C@H](CCCCN)NC(=O)[C@H](CCCCN)NC(C)=O)[C@@H](C)CC)C(N)=O [BP476, Ac-KKLfKKILKYK(COC11H23)-NH2] (Ac-KKL[dF]KKILKYK(Lauroyl)-NH2)	94 ± 10%	3 ± 0.6	3 ± 0.5	5 ± 0.5	5 ± 0.5			94 ± 67	
CCCCCC(=O)NCCCC[C@@H](NC(=O)[C@H](CC(C)C)NC(=O)[C@H](CCCCN)NC(=O)[C@H](CCCCN)NC(C)=O)C(=O)N[C@@H](CCCCN)C(=O)N[C@@H](CCCCN)C(=O)N[C@H](C(=O)N[C@@H](CC(C)C)C(=O)N[C@@H](CCCCN)C(=O)N[C@@H](Cc1ccc(O)cc1)C(=O)N[C@@H](CC(C)C)C(N)=O)[C@@H](C)CC [BP484, Ac-KKLk(COC5H11)KKILKYL-NH2]	10 ± 2%	0 ± 0	2 ± 2	7 ± 1	7 ± 1				
CCCC(=O)N[C@@H](CCCCN)C(=O)N[C@@H](CCCCN)C(=O)N[C@@H](CC(C)C)C(=O)N[C@H](Cc1ccccc1)C(=O)N[C@@H](CCCCN)C(=O)N[C@@H](CCCCN)C(=O)N[C@H](C(=O)N[C@@H](CC(C)C)C(=O)N[C@@H](CCCCN)C(=O)N[C@@H](Cc1ccc(O)cc1)C(=O)N[C@@H](CC(C)C)C(N)=O)[C@@H](C)CC [BP485, C3H7CO-KKLfKKILKYL-NH2]	24 ± 9%	4 ± 0.7	7 ± 0.7	12 ± 1	12 ± 1				
CCCC(=O)NCCCC[C@H](NC(=O)[C@H](CCCCN)NC(C)=O)C(=O)N[C@@H](CC(C)C)C(=O)N[C@H](Cc1ccccc1)C(=O)N[C@@H](CCCCN)C(=O)N[C@@H](CCCCN)C(=O)N[C@H](C(=O)N[C@@H](CC(C)C)C(=O)N[C@@H](CCCCN)C(=O)N[C@@H](Cc1ccc(O)cc1)C(=O)N[C@@H](CC(C)C)C(N)=O)[C@@H](C)CC [BP486, Ac-KK(COC3H7)LfKKILKYL-NH2]	14 ± 5%	4 ± 1	8 ± 1	17 ± 2	17 ± 2			14 ± 2	
CCCCCCCCCCCC(=O)NCCCC[C@@H](NC(=O)[C@H](CC(C)C)NC(=O)[C@H](CCCCN)NC(=O)[C@H](CCCCN)NC(C)=O)C(=O)N[C@@H](CCCCN)C(=O)N[C@@H](CCCCN)C(=O)N[C@H](C(=O)N[C@@H](CC(C)C)C(=O)N[C@@H](CCCCN)C(=O)N[C@@H](Cc1ccc(O)cc1)C(=O)N[C@@H](CC(C)C)C(N)=O)[C@@H](C)CC [BP488, Ac-KKLk(COC11H23)KKILKYL-NH2]	86 ± 14%	4 ± 0.7	5 ± 1	13 ± 5	13 ± 5				
CCCCCCCCCCCC(=O)NCCCC[C@H](NC(=O)[C@H](CCCCN)NC(=O)[C@H](CCCCN)NC(=O)[C@@H](Cc1ccccc1)NC(=O)[C@H](CC(C)C)NC(=O)[C@H](CCCCN)NC(=O)[C@H](CCCCN)NC(C)=O)C(=O)N[C@@H](CC(C)C)C(=O)N[C@@H](CCCCN)C(=O)N[C@@H](Cc1ccc(O)cc1)C(=O)N[C@@H](CC(C)C)C(N)=O [BP489, Ac-KKLfKKK(COC11H23)LKYL-NH2] (Ac-KKL[dF]KKK(Lauroyl)LKYL-NH2)	100 ± 6%	2 ± 0.5	6 ± 2	11 ± 1	11 ± 1			100 ± 1	
melittin [reference compound]									18
